Reference: ChEMBL document CHEMBL4033787, “Glutathione S-Transferase π-Activatable O2-(Sulfonylethyl Derived) Diazeniumdiolates Potently Suppress Melanoma in Vitro and in Vivo” (J Med Chem, 2018)
Active and inactive are the calls of the source. The rule behind the calls is not given here.

What was measured:
MCF7 [1] = test: Antiproliferative activity against human MCF7 cells after 72 hrs by MTT assay; assay type: functional, cell-based; details: MCF7, 72 h
B16 [2] = test: Antiproliferative activity against mouse B16 cells after 72 hrs by MTT assay; assay type: functional, cell-based; details: B16, 72 h
[3] = Substrate activity at GST-Pi in mouse JB6 Cl 30-7b cells assessed as NO release at 20 uM after 8 hrs by Griess assay; assay type: ADME, cell-based
MCF7 [4] = test: Antiproliferative activity against human MCF7 cells at 1 uM after 72 hrs by MTT assay; assay type: functional, cell-based
B16 [5] = test: Antiproliferative activity against mouse B16 cells at 1 uM after 72 hrs by MTT assay; assay type: functional, cell-based
9L-2 = test: Antiproliferative activity against rat 9L-2 cells at 1 uM after 72 hrs by MTT assay; assay type: functional, cell-based
HT-29 = test: Antiproliferative activity against human HT-29 cells at 1 uM after 72 hrs by MTT assay; assay type: functional, cell-based
B16 [6] = test: Antiproliferative activity against mouse B16 cells after 72 hrs in presence of equimolar concentration of (S)-2-amino-5-((R)-1-(carboxymethylamino)-1-oxo-3-(vinylsulfonyl)propan-2-ylamino)-5-oxopentanoic acid by MTT assay; assay type: functional, cell-based; details: B16, 72 h
B16 [7] = test: Induction of nitration of mitochondrial cytochrome C in mouse B16 cells assessed as increase in nitrated cytochrome C levels at 10 uM after 24 hrs in presence of NO scavenger hemoglobin by Western blot analysis; assay type: functional, cell-based
B16 [8] = test: Antiproliferative activity against mouse B16 cells after 72 hrs in presence of equimolar concentration of 4-hydroxy-1-(oxido-NNO-azoxy)piperidine by MTT assay; assay type: functional, cell-based; details: B16, 72 h
[9] = Drug metabolism assessed as GST-Pi (unknown origin)-mediated compound decomposition at 40 uM by UV spectrophotometric analysis; assay type: ADME; details: human, TDE = time-dependent effect
B16 [10] = test: Antitumor activity against mouse B16 cells implanted in iv dosed nude mouse assessed as reduction in tumor volume administered every other day for 20 days; assay type: functional, organism-based
B16 [11] = test: Antiproliferative activity against mouse B16 cells at 3 uM after 24 hrs in presence of GST-Pi inhibitor etacrynic acid by MTT assay; assay type: functional, cell-based
Mus musculus [12] = test: Toxicity in mouse assessed as weight loss at 7.5 to 30 mg/kg, iv dosed for every other day for 20 days; assay type: organism-based; details: in vivo, 480 h
[13] = Substrate activity at GST-Pi in mouse B16 cells assessed as increase in NO release at 20 uM by Griess assay; assay type: ADME, cell-based; details: TDE = time-dependent effect
[14] = Selectivity index, ratio of IC50 for mouse JB6 Cl 30-7b cells to IC50 for mouse B16 cells; assay type: functional
B16 [15] = test: Induction of nitration of mitochondrial cytochrome C in mouse B16 cells assessed as increase in nitrated cytochrome C levels at 10 uM after 24 hrs by Western blot analysis; assay type: functional, cell-based
[16] = Stability of compound in normal saline after 500 mins by UV spectrophotometric analysis; assay type: physicochemical; details: buffer
B16 [17] = test: Antitumor activity against mouse B16 cells implanted in nude mouse assessed as inhibition of tumor growth at 15 mg/kg, iv administered every other day for 20 days relative to control; assay type: functional; details: 480 h, read-out: TGI
B16 [18] = test: Antitumor activity against mouse B16 cells implanted in nude mouse assessed as inhibition of tumor growth at 7.5 mg/kg, iv administered every other day for 20 days relative to control; assay type: functional; details: 480 h, read-out: TGI
B16 [19] = test: Antiproliferative activity against mouse B16 cells at 3 uM after 24 hrs in presence of NO scavenger hemoglobin by MTT assay; assay type: functional, cell-based
[20] = Drug metabolism assessed as GSTalpha (unknown origin)-mediated compound decomposition at 40 uM by UV spectrophotometric analysis; assay type: ADME; details: human
B16 [21] = test: Antitumor activity against mouse B16 cells implanted in iv dosed nude mouse assessed as reduction in tumor weight administered every other day for 20 days; assay type: functional, organism-based
B16 [22] = test: Antiproliferative activity against mouse B16 cells at 3 uM after 24 hrs in presence of NO scavenger carboxy-PTIO by MTT assay; assay type: functional, cell-based
B16 [23] = test: Antitumor activity against mouse B16 cells implanted in nude mouse assessed as inhibition of tumor growth at 30 mg/kg, iv administered every other day for 20 days relative to control; assay type: functional; details: 480 h, read-out: TGI
[24] = Antiproliferative activity against mouse JB6 Cl 30-7b cells after 72 hrs by MTT assay; assay type: cell-based
Mus musculus [25] = test: Toxicity in mouse assessed as mortality at 7.5 to 30 mg/kg, iv dosed for every other day for 20 days; assay type: organism-based; details: in vivo, 480 h
[26] = Substrate activity at GST-Pi in mouse B16 cells assessed as increase in NO release after 8 hrs by DAF-FM DA dye-based flow cytometric analysis; assay type: ADME, cell-based
B16 [27] = test: Induction of nitration of mitochondrial cytochrome C in mouse B16 cells implanted in iv dosed mouse assessed as increase in nitrated cytochrome C levels administered every other day for 20 days by Western blot analysis; assay type: functional, organism-based

**Q.** Which IC50 (MCF7 [1]) does the source give for `CCOC(=O)N1CCN(/[N+]([O-])=N/Oc2ccc([N+](=O)[O-])cc2[N+](=O)[O-])CC1` here?
**A.** 993 nM

**Q.** And the IC50 (B16 [2])?
**A.** 1340 nM

**Q.** What about the Drug metabolism [3] of the same compound?
**A.** Metabolite_Notdetected

**Q.** With `N[C@@H](CCC(=O)N[C@@H](CS(=O)(=O)CCOP(=O)(N(CCCl)CCCl)N(CCCl)CCCl)C(=O)N[C@@H](C(=O)O)c1ccccc1)C(=O)O` [CANFOSFAMIDE] as the compound, how does the IC50 (MCF7 [1]) read?
**A.** 870 nM

**Q.** And the IC50 (B16 [2])?
**A.** 710 nM

**Q.** For `N[C@@H](CCC(=O)N[C@@H](CS(=O)(=O)CCO/N=[N+](\[O-])N(CCCl)CCCl)C(=O)NCC(=O)O)C(=O)O`, which Activity (MCF7 [4]) is on record?
**A.** Active

**Q.** What about the IC50 (MCF7 [1]) of the same compound?
**A.** 611 nM

**Q.** And the IC50 (B16 [2])?
**A.** 404 nM

**Q.** And the Activity (B16 [5])?
**A.** Active

**Q.** What about the Activity (9L-2) of the same compound?
**A.** inactive

**Q.** And the Activity (HT-29)?
**A.** Active

**Q.** Which IC50 (B16 [2]) does the source give for `[O-]/[N+](=N\O)N1CCC(O)CC1` here?
**A.** 928 nM

**Q.** What about the IC50 (B16 [6]) of the same compound?
**A.** 553 nM

**Q.** For `CCOC(=O)N1CCN(/[N+]([O-])=N/OCCS(=O)(=O)C[C@H](NC(=O)CC[C@H](N)C(=O)OC)C(=O)NCC(=O)OC)CC1`, which Activity (MCF7 [4]) is on record?
**A.** Active

**Q.** What about the IC50 (MCF7 [1]) of the same compound?
**A.** 338 nM

**Q.** What about the IC50 (B16 [2]) of the same compound?
**A.** 195 nM

**Q.** What about the Activity (B16 [5]) of the same compound?
**A.** Active

**Q.** What about the Activity (9L-2) of the same compound?
**A.** inactive

**Q.** And the Activity (HT-29)?
**A.** Active

**Q.** For `CCOC(=O)N1CCN(/[N+]([O-])=N/OCCS(=O)(=O)C[C@H](NC(=O)CC[C@H](N)C(=O)O)C(=O)NCC(=O)O)CC1`, which Activity (MCF7 [4]) is on record?
**A.** Active

**Q.** And the Activity (B16 [5])?
**A.** Active

**Q.** And the Activity (9L-2)?
**A.** inactive

**Q.** And the Activity (HT-29)?
**A.** Active

**Q.** Which Activity (MCF7 [4]) does the source give for `N[C@@H](CCC(=O)N[C@@H](CS(=O)(=O)CCO/N=[N+](\[O-])N1CCCC1CO)C(=O)NCC(=O)O)C(=O)O` (stereo not given in full) here?
**A.** Active

**Q.** What about the Activity (B16 [5]) of the same compound?
**A.** Active

**Q.** What about the Activity (9L-2) of the same compound?
**A.** inactive

**Q.** And the Activity (HT-29)?
**A.** Active

**Q.** Which IC50 (B16 [2]) does the source give for `C=CS(=O)(=O)C[C@H](NC(=O)CC[C@H](N)C(=O)O)C(=O)NCC(=O)O` here?
**A.** 1910 nM

**Q.** And the Activity (B16 [7])?
**A.** inactive

**Q.** And the IC50 (B16 [8])?
**A.** 553 nM

**Q.** What does the source list for `N[C@@H](CCC(=O)N[C@@H](CS(=O)(=O)CCO/N=[N+](\[O-])N1CCC(O)CC1)C(=O)NCC(=O)O)C(=O)O`?
**A.** Drug metabolism [9]: Tde; Activity (MCF7 [4]): Active; Activity (B16 [10]): Dose-dependent effect; Activity (B16 [11]): inactive; Activity (Mus musculus [12]): Non-Toxic; Drug metabolism [13]: Tde; Ratio IC50 [14]: 8; Activity (B16 [15]): Active; IC50 (MCF7 [1]): 306 nM; Stability [16]: Stable; inhibition in vivo at 15 mg/kg (B16 [17]): 76.2%; inhibition in vivo at 7.5 mg/kg (B16 [18]): 42.3%; Activity (B16 [19]): inactive; Drug metabolism [20]: Metabolite_Notdetected; IC50 (B16 [2]): 184 nM; Activity (B16 [21]): Dose-dependent effect; Activity (B16 [7]): Active; Activity (B16 [5]): Active; Activity (B16 [22]): inactive; inhibition in vivo at 30 mg/kg (B16 [23]): 84.8%; Activity (9L-2): inactive; IC50 [24]: 1400 nM; Drug metabolism [3]: Metabolite_Notdetected; Activity (HT-29): Active; Activity (Mus musculus [25]): Non-Toxic; Drug metabolism [26]: Dose-dependent effect; Activity (B16 [27]): Dose-dependent effect

**Q.** With `CN(C)/N=N/c1[nH]cnc1C(N)=O` [DACARBAZINE] as the compound, how does the inhibition in vivo at 15 mg/kg (B16 [17]) read?
**A.** 49.9%

**Q.** Which results are given for `N[C@@H](CCC(=O)N[C@@H](CS(=O)(=O)CCO/N=[N+](\[O-])N1CCCC1)C(=O)NCC(=O)O)C(=O)O`?
**A.** Activity (MCF7 [4]): Active; Activity (B16 [5]): Active; Activity (9L-2): inactive; Activity (HT-29): Active

**Q.** Which Activity (MCF7 [4]) does the source give for `COC(=O)CNC(=O)[C@H](CS(=O)(=O)CCO/N=[N+](\[O-])N(CCCl)CCCl)NC(=O)CC[C@H](N)C(=O)OC` here?
**A.** Active

**Q.** What about the Activity (B16 [5]) of the same compound?
**A.** Active

**Q.** What about the Activity (9L-2) of the same compound?
**A.** inactive

**Q.** What about the Activity (HT-29) of the same compound?
**A.** Active

**Q.** Which Activity (MCF7 [4]) does the source give for `CCOC(=O)CNC(=O)[C@H](CS(=O)(=O)CCO/N=[N+](\[O-])N(CCCl)CCCl)NC(=O)CC[C@H](N)C(=O)OCC` here?
**A.** Active

**Q.** What about the Activity (B16 [5]) of the same compound?
**A.** Active

**Q.** What about the Activity (9L-2) of the same compound?
**A.** inactive

**Q.** And the Activity (HT-29)?
**A.** Active
